Experimental findings from patent publication US11505529B2, “8-phenyl-isoquinolines and pharmaceutical composition thereof used in the treatment of irritable bowel syndrome” (NATIONAL TAIWAN UNIVERSITY, priority 2017, dated 2022) are described below.

Structures can show the parent of a compound that is named as a salt. A value given as a limit tells only on which side of the number the result lay.

One series has as its system GW mice. The experiment in a line: Intestinal pain (visceromotor response to colorectal distension) in mice with Giardia postinfection plus water avoidance stress (GW). The format is in vivo, C57BL/6 mice. The conditions noted are these: for intestinal pain (VMR): p.o. single dose 5 mg/Kg, 90 minutes before analysis. The source says: Two animal models of IBS that had shown visceral hypersensitivity were used in the study, including dual challenge of postinfection combined with psychological stress, and post-inflammation. In the first model, mice were divided into two groups, including one group subjected to dual triggers of Giardia postinfection and water avoidance stress (GW) and the one group pair-fed with saline and non-handled (PN) as uninfected unstressed normal controls. Axenic Giardia lamblia trophozoites (strain GS/M, ATCC 50581) were cultured in vitro and harvested at log-phase as described in Singer et al., (T-cell-dependent control of acute Giardia lamblia infections in mice. Infect. Immun. 2000; 68:170-175) and Davids et al. (Polymeric immunoglobulin receptor in intestinal immune defense against the lumen-dwelling protozoan parasite Giardia. J Immunol 2006; 177:6281-6290). Mice were orally gavaged with 10^7 Giardia trophozoites suspended in 0.2 ml of sterile phosphate-buffered saline (PBS) or pair-fed with the same volume of PBS. The status of Giardia infection was verified after 4-7 days by enumeration of motile trophozoites in the small intestine following a cold-shock protocol (disclosed in Scott K G, Yu L C H, Buret A G. Role of CD8+ and CD4+ T lymphocytes in jejunal mucosal injury during murine giardiasis. Infect. Immun. 2004; 72:3536-3542 and Scott K G, Meddings J B, Kirk D R, et al. Intestinal infection with Giardia spp. reduces epithelial barrier function in a myosin light chain kinase-dependent fashion. Gastroenterology 2002; 123:1179-1190). On the sixth week postinfection in which the trophozoites could not be detected in the small intestine (post-clearance phase), mice were subjected to chronic psychological stress. The procedure of WAS involved placing the mouse on a platform (3×6 cm) in the center of a container (56×50 cm) with 3 cm (vertical height) of room temperature water. Mice remained on the platform for 1 hr to avoid water immersion as a psychological stress without physical harm. The 1-hr stress sessions were carried out for 10 consecutive days to mimic chronic repeated stress, and were performed between 9:00 and 12:00 to minimize the effect of the circadian rhythm. Uninfected and unstressed non-handled animals were kept in their cages as normal controls. On the last day of the stress session, intestinal pain was measured in mice.
For testing of anti-nociceptive effects in the GW model, mice were administered novel 5-HT7R ligands by a single dose 90 or 240 minutes prior to intestinal pain measurement. In additional settings, the novel ligands were repeatedly administered for 10 consecutive days 30 minutes before the start of each stress session and intestinal pain was measured immediately after the last stress session.
Abdominal pain was measured by visceromoter response (VMR) to colorectal distension (CRD) in mice following previously described methods with slight modification (Lu C L, Hsieh J C, Dun N J, et al. Estrogen rapidly modulates 5-hydroxytrytophan-induced visceral hypersensitivity via GPR30 in rats. Gastroenterology 2009; 137:1040-1050; Hong S, Zheng G, Wu X, et al. Corticosterone mediates reciprocal changes in CB 1 and TRPV1 receptors in primary sensory neurons in the chronically stressed rat. Gastroenterology 2011; 140:627-637 e4). Briefly, electrodes made from Teflon-coated stainless steel wire (A-M systems, Carlsborg, Wash.) were implanted in the abdominal external oblique muscles of mice at least 15 days prior to VMR experiments. The electrodes were exteriorized onto the back of the neck. Mice were habituated in the plexiglass cylinder for 30 minutes per day for 3 consecutive days before VMR experiments. The cylinder was used for partial restraint of conscious mice during the CRD experiments. For recording, electrodes were connected to an electromyogram acquisition system (AD instruments, New south wales, Australia). […]

The next series has as its system TNBS mice. The experiment in a line: Intestinal pain (visceromotor response to colorectal distension) in post-TNBS colitis mice. The format is in vivo, C57BL/6 mice. The conditions noted are these: for intestinal pain (VMR): p.o. single dose 5 mg/kg, 90 minutes before analysis. The protocol: In the second model, intestinal inflammation was induced by intracolonic administration of 10% 2,4,6-trinotrobenzene sulfonic acid (TNBS) in 0.2 ml of 50% ethanol (Sigma-Aldrich, St. Louis, Mo., USA) via a 22-gauge feeding needle. Sham controls were given PBS in the same volume. Intestinal inflammatory parameters and pain levels were measured on various time points after TNBS administration.
For testing of anti-nociceptive effects in the post-TNBS model, mice were administered with novel 5-HT7R ligands by a single dose at 90 or 240 minutes before or by repeated administration of multiple doses for 10 consecutive days prior to intestinal pain measurement.
Abdominal pain was measured by visceromoter response (VMR) to colorectal distension (CRD) in mice following previously described methods with slight modification (Lu C L, Hsieh J C, Dun N J, et al. Estrogen rapidly modulates 5-hydroxytrytophan-induced visceral hypersensitivity via GPR30 in rats. Gastroenterology 2009; 137:1040-1050; Hong S, Zheng G, Wu X, et al. Corticosterone mediates reciprocal changes in CB 1 and TRPV1 receptors in primary sensory neurons in the chronically stressed rat. Gastroenterology 2011; 140:627-637 e4). Briefly, electrodes made from Teflon-coated stainless steel wire (A-M systems, Carlsborg, Wash.) were implanted in the abdominal external oblique muscles of mice at least 15 days prior to VMR experiments. The electrodes were exteriorized onto the back of the neck. Mice were habituated in the plexiglass cylinder for 30 minutes per day for 3 consecutive days before VMR experiments. The cylinder was used for partial restraint of conscious mice during the CRD experiments. For recording, electrodes were connected to an electromyogram acquisition system (AD instruments, New south wales, Australia). The colon was distended by inflating a balloon catheter inserted intra-anally such that it ended 1.5 cm proximal to the anus. Mice were subjected to […] 10-second distensions (15, 40, and 65 mmHg) with 3-min rest intervals. The electromyographic (EMG) activity was amplified and digitized using a transducer (AD instruments) connected to a P511 AC amplifier (Grass instruments, Calif., USA) and Powerlab device with Chart 5 software (AD instruments). The EMG activity was rectified, and the response was recorded as the increase in the area under the curve (AUC) of the EMG amplitude during CRD versus the baseline period.

Another series concerns colonic tissues. Description: Colonic histology (adverse response) after treatment in GW and TNBS mice. The source says:
Intestinal tissues were fixed in 4% paraformaldehyde (PFA) and embedded in paraffin wax with proper orientation of the crypt to villus axis before sectioning. Sections of 5-μm thickness were deparaffinized with xylene and graded ethanol, stained with hematoxylin and eosin (H&E), and observed under a light microscope.

The target of a further series is 5-HT7R (Homo sapiens, UniProt P34969). The experiment in a line: 5-HT7 receptor binding affinity.
Chain of 5-HT7R (P34969 whole entry): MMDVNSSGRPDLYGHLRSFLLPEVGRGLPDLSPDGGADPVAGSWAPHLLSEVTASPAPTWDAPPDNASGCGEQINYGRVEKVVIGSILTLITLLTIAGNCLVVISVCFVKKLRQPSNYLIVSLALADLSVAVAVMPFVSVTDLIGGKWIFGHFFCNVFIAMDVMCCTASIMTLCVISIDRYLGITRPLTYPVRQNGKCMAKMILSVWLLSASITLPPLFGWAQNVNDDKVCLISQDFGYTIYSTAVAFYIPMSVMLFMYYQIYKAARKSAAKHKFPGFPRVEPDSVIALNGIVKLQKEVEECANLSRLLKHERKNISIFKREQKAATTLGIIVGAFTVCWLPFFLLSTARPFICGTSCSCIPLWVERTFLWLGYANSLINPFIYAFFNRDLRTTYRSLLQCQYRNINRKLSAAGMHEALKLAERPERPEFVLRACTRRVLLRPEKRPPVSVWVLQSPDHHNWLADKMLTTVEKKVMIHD
For the next series, the target named is 5-HT2AR (Homo sapiens, UniProt P28223). The experiment in a line: 5-HT2A receptor binding affinity.
Chain of 5-HT2AR (P28223 whole entry): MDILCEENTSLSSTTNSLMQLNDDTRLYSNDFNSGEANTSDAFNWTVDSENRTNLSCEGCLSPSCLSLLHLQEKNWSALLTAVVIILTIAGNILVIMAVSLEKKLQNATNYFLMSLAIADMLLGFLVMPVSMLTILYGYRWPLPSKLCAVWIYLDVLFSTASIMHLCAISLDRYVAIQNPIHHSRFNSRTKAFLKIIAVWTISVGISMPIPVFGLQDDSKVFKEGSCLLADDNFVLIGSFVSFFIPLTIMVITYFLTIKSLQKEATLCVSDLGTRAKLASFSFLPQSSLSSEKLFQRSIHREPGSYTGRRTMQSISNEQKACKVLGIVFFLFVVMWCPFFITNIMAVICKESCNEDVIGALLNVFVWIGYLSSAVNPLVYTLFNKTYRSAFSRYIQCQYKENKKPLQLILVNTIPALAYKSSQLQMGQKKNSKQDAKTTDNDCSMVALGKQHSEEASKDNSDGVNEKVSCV
The next series in a line: log D. The series is classed as physicochemical.

As for `Cc1[nH]cnc1CN1CCc2c(c3ccccc3n2C)C1=O` [ALN, alosetron hydrochloride], the “intestinal pain (VMR)” value in the series with GW mice (GW mice) is reported as “reduced intestinal pain but was less efficient compared to compound 8”; in the series on TNBS mice, “had no effect on intestinal pain”. The “mice with hyperemia and granulocyte infiltration in the colonic tissues” value with colonic tissues (C57BL/6, mouse, in vivo) is given as 14%. Moreover, the colonic histology result in the series with colonic tissues (p.o. 5 mg/Kg, GW and TNBS mice, hydrochloride, 5 mg/kg) is “Hyperemia (*) and granulocyte infiltration (arrowheads) were observed”.
Consider `COc1ccc(-c2c(O)c(OC)cc3c2CN(CCc2ccccc2F)CC3)c(OC)c1` [Compound 6], for which the Ki on 5-HT7R worked out at 3.5 nM; on 5-HT2AR it was 2.2 nM. The compound also had a logD in the series “log D” of 3.98.
For `COc1ccccc1-c1c(O)c(OC)cc2c1CN(CCCc1ccc([N+](=O)[O-])cc1)CC2` [Compound 7, 6-methoxy-8-(2-methoxyphenyl)-2-(3-(4-nitrophenyl)propyl)-1,2,3,4-tetrahydroisoquinolin-7-ol], in that order: 1.4 nM, 70 nM and 3.66.
On to `COc1ccccc1-c1c(O)c(OC)cc2c1CN(CCCc1ccncc1)CC2` [Compound 8, 6-methoxy-8-(2-methoxyphenyl)-2-(3-(pyridin-4-yl)propyl)-1,2,3,4-tetrahydroisoquinolin-7-ol], for which the Ki on 5-HT7R was 5.8 nM; at 5-HT2AR, greater than 1000 nM. The same compound came in with a logD in the series “log D” of 1.68. In the series on GW mice (GW mice, 5 mg/kg p.o. at 1.5, 4 or 12 hours prior to pain measurement), the “intestinal pain, time response” value is listed as “Reduction of pain levels was seen at three time points”. Further, the “intestinal pain, dose response” value in the series with GW mice (GW mice, i.p. at 0.05 and 0.5 mg/kg, 90 minutes before analysis (FIG. 9A)) is given as “Dose-dependent analgesic effects”; in the series with GW mice (GW mice, p.o. at 1.5 and 5 mg/kg, 90 minutes before analysis (FIG. 9B)) it was “Dose-dependent analgesic effects”. In addition, the “intestinal pain after repeated administration” value is given as “decreased intestinal pain in GW mice in a dose-dependent manner” with GW mice (GW mice, p.o. multiple doses over 10 days) and “reduced intestinal pain” in the series on TNBS mice (multiple doses). For the same compound, the “intestinal pain (VMR)” value with GW mice (GW mice) was “strongest inhibition of intestinal pain to baseline levels”.
Regarding `COc1ccccc1-c1c(O)c(OC)cc2c1CN(CCCc1cccnc1)CC2` [Compound 9, 6-methoxy-8-(2-methoxyphenyl)-2-(3-(pyridin-3-yl)propyl)-1,2,3,4-tetrahydroisoquinolin-7-ol], the figures for the Ki at 5-HT7R and on 5-HT2AR were 4.9 nM and greater than 1000 nM, respectively. This compound registered a logD in the series “log D” of 1.7.
The corresponding values for `COc1ccccc1-c1c2c(cc(OC)c1OC)CCN(CCCc1ccncc1)C2` [Compound 10, 6,7-dimethoxy-8-(2-methoxyphenyl)-2-(3-(pyridin-4-yl)propyl)-1,2,3,4-tetrahydroisoquinoline] are 7.1 nM, greater than 1000 nM and 2.93.
As to `CN(C)C(=O)C(CCN1CCC(O)(c2ccc(Cl)cc2)CC1)(c1ccccc1)c1ccccc1` [LPM, loperamide hydrochloride, reference compound], the “intestinal pain (VMR)” value in the series on GW mice (GW mice) was “had no effect on intestinal nociception”; in the series on TNBS mice, “had no effect on intestinal pain”.
Turning to `CC1CCN(CC[C@H]2CCCN2S(=O)(=O)c2cccc(O)c2)CC1.Cl` [SB7, SB-269970 hydrochloride, reference compound], the “intestinal pain (VMR)” value in the series with GW mice (GW mice) was “had no effect on intestinal nociception”; in the series on TNBS mice it was “had no effect on intestinal pain”. The “intestinal pain measured by VMR” value in the series on GW mice (i.p., 0.5 mg/Kg, IBS-like mouse model (FIG. 7)) is given as “significantly inhibited intestinal pain levels”.

As a reminder, the Ki is a dissociation constant, usually derived from enzyme kinetics or from competition with a known ligand. Lower therefore signals tighter binding. What is called logD is lipophilicity at a set pH, counting ionised and neutral species. High values mean higher lipophilicity, low ones lower lipophilicity.
